In ChEMBL document CHEMBL1201862, “PubChem BioAssay data set” (2004):
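Protocol summary: plate cells (96-well), add compound at 5 concentrations, incubate 48 h, interpolate endpoints linearly. GI50 marks 50% less growth.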 Calls of active or inactive are those of the source. No stated cut-off is given here; in the data, active = GI50 up to about 1.1 µM and inactive = higher.

How the values were obtained:
Assay in all cases: NCI-60 cell line screen, 48 h
TK-10 = tested on: TK-10
KM12 = tested on: KM12
SNB-75 = tested on: SNB-75
SK-MEL-28 = tested on: SK-MEL-28
MOLT-4 = tested on: MOLT-4
HOP-92 = tested on: HOP-92
M14 = tested on: M14
LOX IMVI = tested on: LOX IMVI
UACC-257 = tested on: UACC-257
HT-29 = tested on: HT-29
M19-MEL = tested on: M19-MEL
RXF 393 = tested on: RXF 393
A549 = tested on: A549
HOP-62 = tested on: HOP-62
U-251 = tested on: U-251
HCC 2998 = tested on: HCC 2998
SK-OV-3 = tested on: SK-OV-3
CAKI-1 = tested on: CAKI-1
SF-295 = tested on: SF-295
NCI/ADR-RES = tested on: NCI/ADR-RES

Measured: GI50

COc1ccc(-c2nnc3c4ccccc4sn23)cc1
inactive: TK-10 > 100 µM | KM12 19.3 µM | SNB-75 10.2 µM | SK-MEL-28 22.8 µM | MOLT-4 15.3 µM | HOP-92 34.9 µM | M14 26.4 µM | LOX IMVI 14.8 µM | UACC-257 20 µM | HT-29 26.8 µM | M19-MEL 22.5 µM | RXF 393 6.43 µM | A549 25.4 µM | HOP-62 5.69 µM | U-251 23.4 µM | HCC 2998 17 µM

Brc1ccc(C2CC(c3cccc4ccccc34)=Nc3ccccc3S2)cc1 (configuration not stated)
inactive: TK-10 > 100 µM | KM12 70.5 µM | SK-OV-3 > 100 µM | CAKI-1 > 100 µM | SNB-75 > 100 µM | SF-295 37.3 µM | SK-MEL-28 > 100 µM | MOLT-4 23.5 µM | HOP-92 > 100 µM | M14 > 100 µM | LOX IMVI 44.8 µM | UACC-257 > 100 µM | HT-29 46.7 µM | M19-MEL 40.2 µM | RXF 393 > 100 µM | A549 > 100 µM | HOP-62 > 100 µM | U-251 30.2 µM | HCC 2998 30.4 µM

O=C(Nc1ccc(C2=NCCN2)cc1)c1cncc(C(=O)Nc2ccc(C3=NCCN3)cc2)c1
inactive: KM12 > 100 µM | SK-OV-3 > 100 µM | CAKI-1 > 100 µM | SNB-75 > 31.6 µM | SF-295 > 100 µM | SK-MEL-28 > 31.6 µM | NCI/ADR-RES > 100 µM | MOLT-4 > 100 µM | HOP-92 > 100 µM | LOX IMVI > 100 µM | UACC-257 > 100 µM | HT-29 > 100 µM | M19-MEL > 100 µM | RXF 393 > 100 µM | A549 > 100 µM | HOP-62 > 100 µM | U-251 > 100 µM | HCC 2998 > 100 µM

O=C(O)/C=C/c1c[nH]cn1
inactive: KM12 > 500 µM | SK-OV-3 > 500 µM | CAKI-1 > 500 µM | SNB-75 > 500 µM | SF-295 > 500 µM | SK-MEL-28 > 500 µM | NCI/ADR-RES > 500 µM | MOLT-4 > 500 µM | HOP-92 > 500 µM | LOX IMVI > 500 µM | UACC-257 > 500 µM | HT-29 > 500 µM | M19-MEL > 500 µM | RXF 393 > 500 µM | A549 > 500 µM | HOP-62 493 µM | U-251 > 500 µM | HCC 2998 > 500 µM

CCCCCCCCC[C@@H]1C[C@H](O)[C@H](Cc2ccccc2)N1C(=O)OC(C)(C)C
inactive: TK-10 15.5 µM | KM12 18.7 µM | SK-OV-3 19.6 µM | CAKI-1 21.9 µM | SNB-75 21.9 µM | SF-295 15.8 µM | SK-MEL-28 19.7 µM | MOLT-4 36.5 µM | HOP-92 15 µM | M14 22.6 µM | UACC-257 15.8 µM | HT-29 16.7 µM | M19-MEL 16.8 µM | RXF 393 17.7 µM | A549 18 µM | HOP-62 19.9 µM | U-251 16.1 µM | HCC 2998 14.4 µM

Cn1c2ccccc2c(=O)c2c(O)cc3c(c21)C=CC(C)(C)O3 [NORACRONYCINE]
inactive: KM12 > 25 µM | SK-OV-3 > 25 µM | CAKI-1 3.05 µM | SNB-75 > 16.8 µM | SF-295 > 25 µM | SK-MEL-28 > 25 µM | NCI/ADR-RES > 25 µM | MOLT-4 6.28 µM | HOP-92 > 25 µM | LOX IMVI > 25 µM | UACC-257 > 25 µM | HT-29 > 25 µM | M19-MEL > 25 µM | RXF 393 > 10.2 µM | A549 > 25 µM | HOP-62 > 25 µM | U-251 > 25 µM | HCC 2998 > 25 µM
